Like-named read-outs stand apart in the source and are kept apart here.
How the values were obtained:
[1] = in vivo, cited from earlier work; for half-life in the blood: po
[2] = system: malaria (P. falciparum) infection; assay: Clinical trials in Haiti: 16-day low-dose Artemisinin with or without Citrus bioflavonoid; assay type: in vivo, human; details: single 16-day treatment; daily Artemisinin: babies 25 mg, children 2-12 years 50 mg, adults 100 mg; n=17
Protocol: In one example, patients in Haiti with non-complicated and complicated malaria (P. falciparum) infection were recruited to test the efficacy of peroxybioflavonoid treatment. The treated patient population included infants (n=7), children under age 18 (n>100), and adults (n>75).
Each day, babies were given 25 mg, children 2-12 years old received 50 mg and adults 100 mg of Artemisinin (low-dose Artemisinin). In some patients, Artemisinin was given alone. In other patients, the Artemisinin was combined with Citrus bioflavonoid (peroxybioflavonoid). Patients were treated for 16 days.

Staphylococcus aureus = details: cited from earlier work; for growth inhibitory action: alone; for effect with berberine against Staphylococcus aureus: combination with berberine, attributed to inhibition of MDR pump
Plasmodium berghei = details: curcumin orally 100 mg/kg in combination with Artemisinin at 0.75 and 1.5 mg/mouse; cited from earlier work
Plasmodium falciparum = details: cited from earlier work; for antimalarial effect: alone, catechins from a crude green tea extract; for effect on Artemisinin activity in vitro: combination with Artemisinin
[3] = after consumption of 200 mg of naringenin, present in grapefruit juice; cited from earlier work
[4] = lambs; cited from earlier work

Q: For C[C@@H]1CC[C@H]2[C@@H](C)C(=O)O[C@@H]3O[C@@]4(C)CC[C@@H]1[C@]32OO4 [Artemisinin], which half-life [1] is on record?
A: very short

Q: And the “remained free of malaria post-treatment” value [2]?
A: up to nine

Q: With CCO[C@H]1O[C@@H]2O[C@@]3(C)CC[C@H]4[C@H](C)CC[C@@H]([C@H]1C)[C@@]24OO3 [arteether] as the compound, how does the half-life ([1]; im) read?
A: 7 to 9 h

Q: And the “half-life in the blood” value [1]?
A: 1 to 2 h

Q: Which half-life ([1]; im) does the source give for C[C@H]1[C@H](OC(=O)CCC(=O)O)O[C@@H]2O[C@@]3(C)CC[C@H]4[C@H](C)CC[C@@H]1[C@@]24OO3 [artesunate] here?
A: 7 to 9 h

Q: And the “half-life in the blood” value [1]?
A: 1 to 2 h

Q: What does the source list for COc1cc(-c2oc3cc(OC)c(OC)c(O)c3c(=O)c2OC)ccc1O [chrysoplenetin]?
A: growth inhibitory action (Staphylococcus aureus): very weak; effect with berberine against Staphylococcus aureus (Staphylococcus aureus): synergistic effect

Q: With COc1cc2oc(-c3ccc(O)c(O)c3)c(OC)c(=O)c2c(O)c1OC [chrysosplenol-D] as the compound, how does the growth inhibitory action (Staphylococcus aureus) read?
A: very weak

Q: And the “effect with berberine against Staphylococcus aureus” value (Staphylococcus aureus)?
A: synergistic effect

Q: With COc1cc(/C=C/C(=O)CC(=O)/C=C/c2ccc(O)c(OC)c2)ccc1O [curcumin] as the compound, how does the “survival rate of infected mice” value (Plasmodium berghei) read?
A: increased survival rate

Q: With O=C(O[C@@H]1Cc2c(O)cc(O)cc2O[C@@H]1c1cc(O)c(O)c(O)c1)c1cc(O)c(O)c(O)c1 [epigallocatechin gallate] as the compound, how does the antimalarial effect (Plasmodium falciparum) read?
A: antimalarial effects of their own

Q: What about the “effect on Artemisinin activity in vitro” value (Plasmodium falciparum) of the same compound?
A: potentiate the effects of Artemisinin

Q: With O=C1C[C@@H](c2ccc(O)cc2)Oc2cc(O)cc(O)c21 [naringenin] as the compound, how does the plasma concentrations [3] read?
A: ≤ 6.0 µM

Q: With O=c1c(O)c(-c2ccc(O)c(O)c2)oc2cc(O)cc(O)c12 [quercetin] as the compound, how does the bioavailability of moxidectin [4] read?
A: increase the bioavailability

Q: Which antimalarial effect (Plasmodium falciparum) does the source give for catechin gallate here?
A: antimalarial effects of their own

Q: And the “effect on Artemisinin activity in vitro” value (Plasmodium falciparum)?
A: potentiate the effects of Artemisinin

Source: patent US20210196674A1, “Therapeutics for Malaria” (priority 2015, published 2021)
